We go through seven molecules from patent US11274124B2, “Tubulysin analogues as anticancer agents and payloads for antibody-drug conjugates and methods of treatment therewith” (William Marsh Rice University, priority 2017, dated 2022).

Read-outs that look alike come from different tables or passages of the source.

The test system of series [1] is MES SA (uterine sarcoma cell line). As to the kind of experiment: In vitro cytotoxicity assay (CellTiter-Glo, 72 hours), MES SA. Particulars: Homo sapiens, MES-SA, 72 h. The format is cell-based.
Series [2] relates to HEK 293T (human embryonic kidney cancer cell line). As to the kind of experiment: In vitro cytotoxicity assay (CellTiter-Glo, 72 hours), HEK 293T. The format is cell-based. The settings on record: Homo sapiens, HEK-293T, 72 h. In general terms: ATP-based viability assays read luminescence as a measure of living cells.
Series [3] relates to MES SA, MES SA DX and HEK 293T cells. The experiment in a line: In vitro cytotoxicity assay, structure-activity discussion over the cell lines tested. Particulars: refers to Tables 2 and 3.
Series [4] deals with MES SA DX (MES SA cell line with marked multi-drug resistance). The experiment in a line: In vitro cytotoxicity assay (CellTiter-Glo, 72 hours), MES SA DX. The settings on record: Homo sapiens, MES-SA, 72 h.
[5] abbreviates: read-out: MES SA, IC50 Value in nM.
Setting [6] is: read-out: HEK 293T, IC50 Value in nM.
Where [7] appears, read: read-out: MES SA DX, IC50 Value in nM.

As a reminder, the IC50 is the midpoint of a concentration-inhibition curve. Turning to `COC(=O)[C@@H](C)C[C@H](Cc1ccccc1)NC(=O)c1csc(C(=O)C[C@H](C(C)C)N(C)C(=O)[C@@H](NC(=O)[C@H]2CCCCN2C)C(C)C)n1` [Tb63, Methyl (2S,4R)-2-methyl-4-[({2-[(3R)-4-methyl-3-{methyl[(2S)-3-methyl-2-({[(2R)-1-methylpiperidin-2-yl]carbonyl}amino)butanoyl]amino}pentanoyl]-1,3-thiazol-4-yl}carbonyl)amino]-5-phenylpentanoate], the IC50 in series [1] (setting [5]), in series [2] (setting [6]) and in series [4] (setting [7]) was over 1000 nM each time. For the same molecule, the “cytotoxicity potency (in words, structure-activity discussion)” value (“cytotoxicity potency” below) in series [3] is “significant reduction in potency”.
Turning to `CCCCN1CCCC[C@@H]1C(=O)N[C@H](C(=O)N(C)[C@H](C[C@@H](OC(C)=O)c1nc(C(=O)N[C@H]2CC[C@H](C(=O)O)CC2)cs1)C(C)C)C(C)C` [Tb55, trans-4-[({2-[(1R,3R)-1-Acetoxy-3-{[(2S)-2-({[(2R)-1-butylpiperidin-2-yl]carbonyl}amino)-3-methylbutanoyl](methyl)amino}-4-methylpentyl]-1,3-thiazol-4-yl}carbonyl)amino]cyclohexanecarboxylic acid], the IC50 in series [1] (setting [5]), in series [2] (setting [6]) and in series [4] (setting [7]) was over 1000 nM each time. Also, the “cytotoxicity potency” value in series [3] is given as “insignificant or low biological activity”.
As to `COC(=O)[C@@H](C)C[C@H](Cc1ccc(F)cc1)NC(=O)c1csc([C@@H](C[C@H](C(C)C)N(C)C(=O)[C@@H](NC(=O)[C@H]2CCCCN2C)C2CC2)OC(C)=O)n1` [Tb101, Methyl (2S,4R)-4-[({2-[(1R,3R)-1-acetoxy-3-{[(2S)-2-cyclopropyl-2-({[(2R)-1-methylpiperidin-2-yl]-carbonyl}amino)acetyl](methyl)amino}-4-methylpentyl]-1,3-thiazol-4-yl}carbonyl)amino]-5-(4-fluorophenyl)-2-methylpentanoate], the IC50 in series [1] (setting [5]), in series [2] (setting [6]) and in series [4] (setting [7]) was over 1000 nM in each case. Besides, in series [3], the “cytotoxicity potency” value is recorded as “loss of activity”.
On to `CC(=O)O[C@H](C[C@H](C(C)C)N(C)C(=O)[C@@H](NC(=O)[C@H]1CCCCN1C)C(C)C)c1nc(C(=O)N[C@@H](Cc2ccccc2)C[C@H](C)C(=O)O)c(C)s1` [Tb67, (2S,4R)-4-[({2-[(1R,3R)-1-Acetoxy-4-methyl-3-{methyl[(2S)-3-methyl-2-({[(2R)-1-methylpiperidin-2-yl]carbonyl}amino)butanoyl]amino}pentyl]-5-methyl-1,3-thiazol-4-yl}carbonyl)amino]-2-methyl-5-phenylpentanoic acid], for which the IC50 was 0.836 nM in series [1] (read-out: MES SA, IC50); 0.836 nM in series [1] (setting [5]); 0.144 nM in series [2] (read-out: HEK 293T, IC50); 0.143 nM in series [2] (setting [6]); 71.5 nM in series [4] (read-out: MES SA DX, IC50); 71.5 nM in series [4] (setting [7]). Moreover, in series [3], the “cytotoxicity potency” value is reported as “some loss of potency”.
`CCCCN1CCCC[C@@H]1C(=O)N[C@H](C(=O)N(C)[C@H](C[C@@H](OC(C)=O)c1nc(C(=O)N[C@H]2CC[C@H](C(=O)OC)CC2)cs1)C(C)C)C(C)C` [Tb54, Methyl trans-4-[({2-[(1R,3R)-1-acetoxy-3-{[(2S)-2-({[(2R)-1-butylpiperidin-2-yl]carbonyl}amino)-3-methylbutanoyl](methyl)amino}-4-methylpentyl]-1,3-thiazol-4-yl}carbonyl)amino]cyclohexanecarboxylate]: the IC50 in series [1] (setting [5]), in series [2] (setting [6]) and in series [4] (setting [7]) was over 1000 nM in each case. Moreover, in series [3], the “cytotoxicity potency” value is “insignificant or low biological activity”.
For `CC[C@H](C)[C@H](NC(=O)[C@H]1CCCCN1C)C(=O)N(C)[C@H](CC(=O)c1nc(C(=O)N[C@@H](Cc2ccccc2)C[C@H](C)C(=O)O)cs1)C(C)C` [Tb59, (2S,4R)-2-Methyl-4-[({2-[(3R)-4-methyl-3-{methyl[(2S,3S)-3-methyl-2-({[(2R)-1-methylpiperidin-2-yl]carbonyl}amino)pentanoyl]amino}pentanoyl]-1,3-thiazol-4-yl}carbonyl)amino]-5-phenylpentanoic acid], the IC50 in series [1] (setting [5]), in series [2] (setting [6]) and in series [4] (setting [7]) was over 1000 nM throughout. Moreover, the “cytotoxicity potency” value in series [3] is on record as “significant reduction in potency”.
On to `CCOC(=O)[C@@H](C)C[C@H](Cc1ccccc1)NC(=O)c1csc([C@@H](C[C@H](C(C)C)N(C)C(=O)[C@@H](NC(=O)[C@H]2CCCCN2C)C(C)(C)CC)OC(C)=O)n1` [Tb108, Ethyl (2S,4R)-4-[({2-[(1R,3R)-1-acetoxy-3-{[(2S)-3,3-dimethyl-2-({[(2R)-1-methylpiperidin-2-yl]car-bonyl}amino)pentanoyl](methyl)amino}-4-methylpentyl]-1,3-thiazol-4-yl}carbonyl)amino]-2-methyl-5-phenylpentanoate], for which the IC50 in series [1] (read-out: MES SA, IC50) amounted to 0.95 nM; in series [1] (setting [5]), 0.95 nM; in series [2] (read-out: HEK 293T, IC50) it was 0.38 nM; in series [2] (setting [6]), 0.38 nM; in series [4] (read-out: MES SA DX, IC50) it was 6.08 nM; in series [4] (setting [7]), 6.08 nM. Also, the “cytotoxicity potency” value in series [3] is recorded as “exceptional potencies”.
